Reference: paper PMC8308911, “Pharmacokinetic Study of Anti-osteoarthritic Compounds of a Standardized Fraction from Sphaeralcea Angustifolia” (Pharmaceuticals, 2021)

Tests used:
[1] = Stability of the active compounds in mouse plasma under handling and storage conditions; conditions: mice plasma
Method: The investigation presented here expected manipulation conditions during all of the sample storage and process periods, which included the stability data from the freeze/defrost, bench-top, autosampler, and long-term stability tests. For all stability studies, fresh QC samples were evaluated by using a freshly prepared standard curve for the measurements. The analyzed conditions were 0, 8, and 24 h at room temperature, 8 h at 4 °C, and 30 days at −70 °C. The concentrations obtained from all of the stability studies were compared with the fresh QC samples, and the percentage of concentration deviation was calculated.

[2] = design: method as in PMID 23384552; dose or concentration left out as unconfirmed; conditions: feces and urine; ref [20]; cited from earlier work
[3] = Autosampler (4 °C, 8 h), nominal 2.5 μg/mL
[4] = Autosampler (4 °C, 8 h), nominal 5 μg/mL
[5] = Autosampler (4 °C, 8 h), nominal 10 μg/mL
[6] = Long-term (−70 °C, 1 month), nominal 2.5 μg/mL
[7] = Long-term (−70 °C, 1 month), nominal 5 μg/mL
[8] = Long-term (−70 °C, 1 month), nominal 10 μg/mL
[9] = room temperature, 0 h, nominal 2.5 μg/mL
[10] = room temperature, 0 h, nominal 5 μg/mL
[11] = room temperature, 0 h, nominal 10 μg/mL
[12] = room temperature, 8 h, nominal 2.5 μg/mL
[13] = room temperature, 8 h, nominal 5 μg/mL
[14] = room temperature, 8 h, nominal 10 μg/mL
[15] = room temperature, 24 h, nominal 2.5 μg/mL
[16] = room temperature, 24 h, nominal 5 μg/mL
[17] = room temperature, 24 h, nominal 10 μg/mL

COc1c(C)cc2c(C(C)C)cc(C(=O)O)c(O)c2c1O [Sphaeralcic acid, sphaeralcic acid]
Accuracy Bias [1, 3]: −3.89%
Observed Concentration [1, 3]: 2.40 ± 0.04 µg/mL
Accuracy Bias [1, 4]: −1.69%
Observed Concentration [1, 4]: 4.92 ± 0.08 µg/mL
Accuracy Bias [1, 5]: −3.34%
Observed Concentration [1, 5]: 9.67 ± 0.12 µg/mL
Accuracy Bias [1, 6]: −4.82%
Observed Concentration [1, 6]: 2.38 ± 0.08 µg/mL
Accuracy Bias [1, 7]: −2.61%
Observed Concentration [1, 7]: 4.87 ± 0.10 µg/mL
Accuracy Bias [1, 8]: −3.50%
Observed Concentration [1, 8]: 9.65 ± 0.08 µg/mL
Accuracy Bias [1, 9]: −0.60%
Observed Concentration [1, 9]: 2.48 ± 0.03 µg/mL
Accuracy Bias [1, 10]: 0.17%
Observed Concentration [1, 10]: 5.01 ± 0.06 µg/mL
Accuracy Bias [1, 11]: −0.49%
Observed Concentration [1, 11]: 9.95 ± 0.11 µg/mL
Accuracy Bias [1, 12]: −9.98%
Observed Concentration [1, 12]: 2.25 ± 0.13 µg/mL
Accuracy Bias [1, 13]: −8.10%
Observed Concentration [1, 13]: 4.59 ± 0.06 µg/mL
Accuracy Bias [1, 14]: −6.48%
Observed Concentration [1, 14]: 9.35 ± 0.11 µg/mL
Accuracy Bias [1, 15]: −9.03%
Observed Concentration [1, 15]: 2.27 ± 0.11 µg/mL
Accuracy Bias [1, 16]: −8.73%
Observed Concentration [1, 16]: 4.56 ± 0.10 µg/mL
Accuracy Bias [1, 17]: −7.37%
Observed Concentration [1, 17]: 9.26 ± 0.07 µg/mL
route of elimination [2]: enterohepatic route
